Experimental data reported in patent publication US20260191807A1, “COMPOSITIONS AND METHODS FOR TREATMENT OF PRADER-WILLI SYNDROME” (ERX Pharmaceuticals Inc., priority 2022, published 2026).

What was measured:
Format in all cases: in vivo
[1] = system: C57BL/6 DIO mice; assay: Daily food intake of C57BL/6 DIO mice; settings: for Food intake (food weights in g/day): Belaronib 0.3 mg/kg SC, Celastrol 0.2 mg/kg IP daily, mean
Procedure: (§1) C57BL/6 mice were treated with test compound (Celastrol) or controls as shown in the table below from Day 1 to Day 15. […] One mouse was excluded from the study because it appeared resistant to nestlet shredding prior to treatment.
(§2) Male C57BL/6 DIO mice were obtained from Jackson Labs (Bar Harbor, ME). The mice arrived at ages 17 weeks and mice were housed 3 per cage on arrival. Prior to dosing in the study, the mice were singly housed.
(§3) All treatment volumes were 10 mL/kg. Utilizing the art-recognized nestlet shredding mouse model, […]. Celastrol and the vehicle control were administered intraperitoneally using a 30G needle. Beloranib was administered subcutaneously using a 30G needle. All treatments were administered daily in the afternoon at 17:00 h, 1 hour before dark cycle from Day 1 to end of dosing.
(§4) Celastrol was dissolved in a pharmaceutically-acceptable excipient, e.g., 50% Solutol/50% DMAC, and this stock solution aliquoted and stored at −80° C. until treatment day. On the day of treatment, an aliquot of the stock solution was thawed and diluted […] with saline to obtain the desired dosing solution strength in 5% Solutol/5% dimethylacetamide/90% saline. The vehicle control was 5% Solutol/5% dimethylacetamide/90% saline. Beloranib was dissolved in 100% DMSO, and this stock solution was aliquoted and stored at −80° C. until treatment day. On the day of treatment, an aliquot of the stock solution was thawed and diluted 1:10 with deionized (DI) water to obtain the desired dosing solution strength in 10% DMSO.
(§5) Daily food intake was calculated based on remaining food weight compared to food weight on the previous day using an Ohaus model CS 200 balance.

[2] = system: C57BL/6 DIO mice; assay: Nestlet shredding test in C57BL/6 DIO mice; settings: Belaronib 0.3 mg/kg SC, Celastrol 0.2 mg/kg IP daily, mean
Procedure: as §1, §2, §3, §4
(§6) The nestlet shredding test is an art-recognized animal model for human repetitive, anxiety, and/or compulsive behaviors. In the nestlet shredding test, a nestlet comprised of pulped fiber, e.g., cotton fiber, is preweighed and placed on top of cage bedding and the amount of the nestlet remaining intact after a test session of pre-determined time is evaluated.
Nestlet shredding was determined on day 1, day 6, day 11 and day 15 by placing a fresh nestlet prior to the dark cycle and measuring the weight of the remaining nestlet at 12 and 24 hours on an Ohaus model CS 200 balance. Percent shredding was calculated based on the initial nestlet weight.

[3] = system: C57BL/6-Magel2 mice; assay: Daily food intake of C57BL/6 Magel2 mice; settings: for Food intake (food weights in g/day): mean
Procedure: (§7) In the study disclosed herein, celastrol at was administered intraperitoneally using a 30G needle at a dose of 0.2 mg/kg to five female Magel2 homozygous mice (−/−) and four male mice heterozygous for Magel2 (−/+). In addition, vehicle was administered to four male mice heterozygous for Magel2 (−/+) for 21 days.
(§8) C57BL/6-Magel2 mice were bred for purpose from cryo recovery by Jackson Labs (Bar Harbor, ME) and arrived at the testing facility at age 8 weeks.
as §3, with “needle.” for “needle. Beloranib was administered subcutaneously using a 30G needle.”
(§9) Celastrol was dissolved in 50% Solutol/50% DMAC. The resulting stock solution aliquoted and stored at −80° C. until treatment day. On the day of treatment an aliquot of the stock solution was thawed and diluted 1:20 with saline to obtain the desired dosing solution strength in 5%
as §5

[4] = system: C57BL/6-Magel2 mice; assay: Nestlet shredding test in C57BL/6 Magel2 mice; settings: 0.2 mg/kg IP QD, mean
Procedure: The nestlet shredding behavioral effects of celastrol was evaluated in Magel2 knockout mice. Magel2 knockout has been used as a model of Prader-Willi syndrome to assess potential pharmacological treatments effect on behavior (Meziane 2015). Without wishing to be bound by theory, the Magel2 gene is a major causative gene of phenotypes in both Prader-Willi syndrome and autism (Schraff 2013). Further, nestlet shredding has been used to assess anxiety and compulsive behaviors in mouse models (Angoa-Perez 2013 and Dorniger 2020) and has been used to characterize clinically effective treatments for Prader-Willi syndrome (Fagen 2018 and McCandless 2017).
as §7, §8
as §3, with “needle.” for “needle. Beloranib was administered subcutaneously using a 30G needle.”
as §9, §6
Nestlet shredding was determined on day 1, day 11, and day 21 by placing a fresh nestlet prior to the dark cycle and measuring the weight of the remaining nestlet at 12 and 24 hours on an Ohaus model CS 200 balance. Percent shredding was calculated based on the initial nestlet weight.

## CC1=C(O)C(=O)C=C2C1=CC=C1[C@@]2(C)CC[C@@]2(C)[C@@H]3C[C@](C)(C(=O)O)CC[C@]3(C)CC[C@]12C [Celastrol]
[1]; 15-day study, Beloranib 0.3 mg/kg SC, celastrol 0.2 mg/kg IP daily, vehicle 32.6 g
  cumulative food intake, average total for the study: 17.4 g/mouse
[1]; Celastrol compared with positive control Beloranib
  effect on food intake (in words): more potent and sustained effect on food intake
[1]; Day 1
  Food intake (food weights in g/day): 2.7 g/day
[1]; Day 2
  Food intake (food weights in g/day): 1.2 g/day
[1]; Day 3
  Food intake (food weights in g/day): 1.1 g/day
[1]; Day 4
  Food intake (food weights in g/day): 0.9 g/day
[1]; Day 5
  Food intake (food weights in g/day): 0.7 g/day
[1]; Day 6
  Food intake (food weights in g/day): 0.9 g/day
[1]; Day 7
  Food intake (food weights in g/day): 1.1 g/day
[1]; Day 8
  Food intake (food weights in g/day): 1.2 g/day
[1]; Day 9
  Food intake (food weights in g/day): 0.7 g/day
[1]; Day 10
  Food intake (food weights in g/day): 0.9 g/day
[1]; Day 11
  Food intake (food weights in g/day): 1.1 g/day
[1]; Day 12
  Food intake (food weights in g/day): 1.3 g/day
[1]; Day 13
  Food intake (food weights in g/day): 1.4 g/day
[1]; Day 14
  Food intake (food weights in g/day): 1.2 g/day
[1]; Day 15
  Food intake (food weights in g/day): 1.0 g/day
[1]; from day 2 throughout the 15-day study, 0.2 mg/kg IP daily, vehicle around 2.2
  food intake, average: 1.0 g/day/mouse
[2]; Day 1, 12 hour
  Nestlet Shredding (percent of nestlet shredded): 94.4%
[2]; Day 6, 12 hour
  Nestlet Shredding (percent of nestlet shredded): 70.1%
[2]; Day 6, 24 hour
  Nestlet Shredding (percent of nestlet shredded): 93.6%
[2]; Day 11, 12 hour
  Nestlet Shredding (percent of nestlet shredded): 43.7%
[2]; Day 11, 24 hour
  Nestlet Shredding (percent of nestlet shredded): 71.0%
[2]; Day 15, 12 hour
  Nestlet Shredding (percent of nestlet shredded): 50.9%
[2]; Day 15, 24 hour
  Nestlet Shredding (percent of nestlet shredded): 63.3%
[3]; Day 1, Magel2 (−/+) heterozygous male mice, 0.2 mg/kg IP QD
  Food intake (food weights in g/day): 6.6 g/day
[3]; Day 1, Magel2 (−/−) homozygous female mice, 0.2 mg/kg IP QD
  Food intake (food weights in g/day): 5.9 g/day
[3]; Day 2, Magel2 (−/+) heterozygous male mice, 0.2 mg/kg IP QD
  Food intake (food weights in g/day): 4.9 g/day
[3]; Day 2, Magel2 (−/−) homozygous female mice, 0.2 mg/kg IP QD
  Food intake (food weights in g/day): 5.9 g/day
[3]; Day 4, Magel2 (−/+) heterozygous male mice, 0.2 mg/kg IP QD
  Food intake (food weights in g/day): 7.0 g/day
[3]; Day 4, Magel2 (−/−) homozygous female mice, 0.2 mg/kg IP QD
  Food intake (food weights in g/day): 6.4 g/day
[3]; Day 6, Magel2 (−/+) heterozygous male mice, 0.2 mg/kg IP QD
  Food intake (food weights in g/day): 6.3 g/day
[3]; Day 6, Magel2 (−/−) homozygous female mice, 0.2 mg/kg IP QD
  Food intake (food weights in g/day): 6.2 g/day
[3]; Day 8, Magel2 (−/+) heterozygous male mice, 0.2 mg/kg IP QD
  Food intake (food weights in g/day): 5.2 g/day
[3]; Day 8, Magel2 (−/−) homozygous female mice, 0.2 mg/kg IP QD
  Food intake (food weights in g/day): 4.6 g/day
[3]; Day 10, Magel2 (−/+) heterozygous male mice, 0.2 mg/kg IP QD
  Food intake (food weights in g/day): 3.1 g/day
[3]; Day 10, Magel2 (−/−) homozygous female mice, 0.2 mg/kg IP QD
  Food intake (food weights in g/day): 2.4 g/day
[3]; Day 11, Magel2 (−/+) heterozygous male mice, 0.2 mg/kg IP QD
  Food intake (food weights in g/day): 3.9 g/day
[3]; Day 11, Magel2 (−/−) homozygous female mice, 0.2 mg/kg IP QD
  Food intake (food weights in g/day): 1.4 g/day
[3]; Day 13, Magel2 (−/+) heterozygous male mice, 0.2 mg/kg IP QD
  Food intake (food weights in g/day): 5.1 g/day
[3]; Day 13, Magel2 (−/−) homozygous female mice, 0.2 mg/kg IP QD
  Food intake (food weights in g/day): 4.0 g/day
[3]; Day 15, Magel2 (−/+) heterozygous male mice, 0.2 mg/kg IP QD
  Food intake (food weights in g/day): 5.9 g/day
[3]; Day 15, Magel2 (−/−) homozygous female mice, 0.2 mg/kg IP QD
  Food intake (food weights in g/day): 5.2 g/day
[3]; Day 17, Magel2 (−/+) heterozygous male mice, 0.2 mg/kg IP QD
  Food intake (food weights in g/day): 3.2 g/day
[3]; Day 17, Magel2 (−/−) homozygous female mice, 0.2 mg/kg IP QD
  Food intake (food weights in g/day): 2.2 g/day
[3]; Day 18, Magel2 (−/+) heterozygous male mice, 0.2 mg/kg IP QD
  Food intake (food weights in g/day): 2.5 g/day
[3]; Day 18, Magel2 (−/−) homozygous female mice, 0.2 mg/kg IP QD
  Food intake (food weights in g/day): 3.2 g/day
[3]; Day 20, Magel2 (−/+) heterozygous male mice, 0.2 mg/kg IP QD
  Food intake (food weights in g/day): 6.2 g/day
[3]; Day 20, Magel2 (−/−) homozygous female mice, 0.2 mg/kg IP QD
  Food intake (food weights in g/day): 4.6 g/day
[3]; Day 21, Magel2 (−/+) heterozygous male mice, 0.2 mg/kg IP QD
  Food intake (food weights in g/day): 5.0 g/day
[3]; Day 21, Magel2 (−/−) homozygous female mice, 0.2 mg/kg IP QD
  Food intake (food weights in g/day): 11.1 g/day
[3]; Day −2 (before dosing), Magel2 (−/+) heterozygous male mice
  Food intake (food weights in g/day): 5.0 g/day
[3]; Day −2 (before dosing), Magel2 (−/−) homozygous female mice
  Food intake (food weights in g/day): 3.2 g/day
[3]; treated Magel2 (−/+) and (−/−) groups versus vehicle, 0.2 mg/kg IP QD
  difference in food intake between the groups (in words): not a significant difference in food intake
[4]; Day 1, 12 hour, Magel2 (−/+) heterozygous male mice
  Nestlet Shredding (percent of nestlet shredded): 100.0%
[4]; Day 1, 12 hour, Magel2 (−/−) homozygous female mice
  Nestlet Shredding (percent of nestlet shredded): 100.0%
[4]; Day 11, 12 hour, Magel2 (−/+) heterozygous male mice
  Nestlet Shredding (percent of nestlet shredded): 100.0%
[4]; Day 11, 12 hour, Magel2 (−/−) homozygous female mice
  Nestlet Shredding (percent of nestlet shredded): 54.7%
[4]; Day 11, 24 hour, Magel2 (−/+) heterozygous male mice
  Nestlet Shredding (percent of nestlet shredded): 100.0%
[4]; Day 11, 24 hour, Magel2 (−/−) homozygous female mice
  Nestlet Shredding (percent of nestlet shredded): 93.5%
[4]; Day 21, 12 hour, Magel2 (−/+) heterozygous male mice
  Nestlet Shredding (percent of nestlet shredded): 38.3%
[4]; Day 21, 12 hour, Magel2 (−/−) homozygous female mice
  Nestlet Shredding (percent of nestlet shredded): 54.7%
[4]; Day 21, 24 hour, Magel2 (−/+) heterozygous male mice
  Nestlet Shredding (percent of nestlet shredded): 44.6%
[4]; Day 21, 24 hour, Magel2 (−/−) homozygous female mice
  Nestlet Shredding (percent of nestlet shredded): 62.3%
